Values joined by “and” are separate entries in the source; they are usually repeats but may differ in a detail not shown here. Equal entries are not always repeated.
Assays:
[1] = molecular target: L. blandensis RNR, a-site (NrdB-linked ATP-cone) (Leeuwenhoekiella blandensis, UniProt A3XHF9); experiment: Enzyme activity assay with wild type NrdB (overall activity regulation, a-site); type: biochemical
Experimental: (§1) Enzyme assays were performed at room temperature in 50 mM Tris-HCl at pH 8 in volumes of 50 μl. Reaction conditions, giving maximal activity were determined experimentally. […] Mixtures of 0.5 μM NrdA and 2 μM wild type NrdB or NrdB∆99 (for determination of s-site KL) (Figure 3a–b) or 0.5 μM of NrdB and 2 uM NrdA (for determination of a-site KL), (Figure 3c–f) were used. Some components were explicitly varied in specific experiments. Generally, 0.8 mM CDP was used as substrate. […] When dTTP was used as an s-site effector, 0.5 mM or 0.8 mM GDP was used as substrate. In four substrate assays, the four substrates CDP, ADP, GDP and UDP were simultaneously present in the mixture at concentrations of 0.5 mM each. The substrate mixture was added last to start the reactions. Certain assays were performed in the presence of Mn(CH3COO)2 or FeNH4(SO4): 20 μM of the indicated metal was added to 10 μM NrdB or NrdB∆99 protein, incubated for 10 min, mixed with NrdA and added to the reaction mixture.
(§2) Enzyme reactions were incubated for 10–30 min and then stopped by the addition of methanol. The chosen incubation time gave a maximum substrate turnover of 30%. […] Compound identification was achieved by comparison with injected standards. Relative quantification was obtained by peak height measurements in the chromatogram (UV absorbance at 271 nm) in relation to standards. Specific activities of either NrdA (Figure 2a–b) or NrdB (Figure 2c–f) were determined. Specific activities varied between protein preparations. In some cases the data was standardized to activity percent, where 100% was determined as maximum enzyme activity in a specific condition.
(§3) From a direct plot of activity versus concentration of effector, the KL values for binding of effectors to the s-site and the a-site, were calculated in SigmaPlot using the equation: V=Vmax×[dNTP]/(KL+[dNTP]) and Ki for non-competitive dATP inhibition at NrdB was calculated in Sigmaplot using the equation: V=Vmax/(1+[dNTP]/Ki)

NrdB [2] = molecular target: T1, NrdB (Leeuwenhoekiella blandensis, UniProt A3XHF9); experiment: Isothermal titration calorimetry (ITC), nucleotide binding to NrdB; conditions: for N (binding stoichiometry): per NrdB monomer, for dATP kept constant N = 2, 59% active protein
Experimental: Isothermal titration calorimetry (ITC) experiments were carried out on a MicroCal PEAQ-ITC system (Malvern Instruments Ltd) in a buffer containing 25 mM HEPES (pH 7.65), 150 mM NaCl, and 10% glycerol, 2 mM tris(2-carboxyethyl)phosphine, and 5 mM MgCl2. Measurements were done at 10°C. The initial injection volume was 0.4 μl over a duration of 0.8 s. All subsequent injection volumes were 2–2.5 μl over 4–5 s with a spacing of 150 s between the injections. Data for the initial injection were not considered. For dATP binding analysis, the concentration of NrdB in the cell was 12 µM and dATP in syringe 120 or 140 µM. Reverse titrations were performed with 113 µM NrdB in the syringe and 12 or 30 µM dATP in the cell. For titration of dATP into NrdB∆99, protein concentration in the cell and dATP concentration in the syringe were 50 µM and 900 µM respectively. […] For titration of ATP into NrdB, cell and syringe concentrations were 50 and 1600 µM respectively. The data were analyzed using the built-in one set of sites model of the MicroCal PEAQ-ITC Analysis Software (Malvern Instruments Ltd). A fixed ligand/protein stoichiometry of 2 was used for dATP to NrdB titrations. Standard deviations in thermodynamic parameters, N and Kd were estimated from the fits of three different titrations.

NrdB [3] = molecular target: T1, NrdB; experiment: GEMMA analysis of NrdB oligomers; conditions: for effect on NrdB oligomer equilibrium: 50 µM nucleotide, 0.1 mg/ml NrdB (~2 µM)
Experimental: In GEMMA, biomolecules are electrosprayed into gas phase, neutralized to singly charged particles, and the gas phase electrophoretic mobility is measured with a differential mobility analyzer. The mobility of an analyzed particle is proportional to its diameter, which therefore allows for quantitative analysis of the different particle sizes contained in a sample ([Kaufman et al., 1996]). The GEMMA instrumental setup and general procedures were as described previously ([Rofougaran et al., 2008]). NrdA, NrdB and NrdB∆99 proteins were equilibrated by Sephadex G-25 chromatography into a buffer containing 100 mM ammonium acetate, pH 7.8. In addition, 2 mM DTT was added to the NrdA protein solutions to increase protein stability. Prior to GEMMA analysis, the protein samples were diluted to a concentration of 0.025–0.1 mg/ml in a buffer containing 20 mM ammonium acetate, pH 7.5, 0.005% (v/v) Tween 20, nucleotides (when indicated), and magnesium acetate (equimolar to the total nucleotide concentration), incubated for 5 min at room temperature, centrifuged and applied to the GEMMA instrument. Protein concentrations higher than normally recommended for GEMMA were needed to see the larger oligomeric complexes and the experiments to measure NrdA-NrdB interactions were run at as low flow rate as possible (driven by 1.4 Psi pressure) to minimize false interactions that may appear with elevated protein concentration if the flow-rate recommended by the manufacturer is used (3.7 Psi). Most of our experiments were performed with a flow rate driven by 2 Psi.

[4] = system: L. blandensis RNR (wild-type NrdB or NrdB∆99); experiment: Metal-dependency of enzyme activity; type: biochemical, Leeuwenhoekiella blandensis; conditions: metal added to cultures or 20 µM divalent metal ions to 10 µM NrdB
Experimental: Overnight cultures of E. coli BL21(DE3)/pET28a(+) bearing pET-nrdA, pET-nrdB and pET-nrdB∆99 were diluted to an absorbance at 600 nm of 0.1 in LB (Luria-Bertani) liquid medium, containing kanamycin (50 μg/ml) and shaken vigorously at 37°C. At an absorbance at 600 nm of 0.8, isopropyl-β-D-thiogalactopyranoside (Sigma) was added to a final concentration of 0.01 mM for NrdA expression and 0.5 mM for NrdB and NrdB∆99 expression. For particular experiments, 0.5 mM MnSO4 or 0.5 mM FeNH4(SO4)2 or the combination of both metals (0.4 mM and 0.25 mM respectively) were added to NrdB∆99 cultures. The cells were grown overnight at 14°C for NrdA expression and 20°C for NrdB and NrdB∆99 expression and harvested by centrifugation.
(§4) Enzyme assays were performed at room temperature in 50 mM Tris-HCl at pH 8 in volumes of 50 μl. Reaction conditions, giving maximal activity were determined experimentally. […] Mixtures of 0.5 μM NrdA and 2 μM wild type NrdB or NrdB∆99 (for determination of s-site KL) (Figure 3a–b) or 0.5 μM of NrdB and 2 uM NrdA (for determination of a-site KL), (Figure 3c–f) were used. Some components were explicitly varied in specific experiments. Generally, 0.8 mM CDP was used as substrate. […] When dTTP was used as an s-site effector, 0.5 mM or 0.8 mM GDP was used as substrate. […]

[5] = system: L. blandensis class I RNR; experiment: Four-substrate activity assay, allosteric specificity regulation; type: biochemical, Leeuwenhoekiella blandensis; conditions: all four substrates 0.5 mM each, effector 2 mM, 1 µM NrdB and 4 µM NrdA
Experimental: as §1, §2

s-site in NrdA = molecular target: T2, s-site in NrdA (Leeuwenhoekiella blandensis, UniProt A3XHF8); experiment: Enzyme activity assay, CDP reduction, effector titration with NrdB∆99 (s-site); type: biochemical; conditions: 0.5 µM NrdA and 2 µM NrdB∆99, read-out: KL (s-site), concentration of allosteric effector that gives half maximal enzyme activity
T2 sequence (A3XHF8 1-600): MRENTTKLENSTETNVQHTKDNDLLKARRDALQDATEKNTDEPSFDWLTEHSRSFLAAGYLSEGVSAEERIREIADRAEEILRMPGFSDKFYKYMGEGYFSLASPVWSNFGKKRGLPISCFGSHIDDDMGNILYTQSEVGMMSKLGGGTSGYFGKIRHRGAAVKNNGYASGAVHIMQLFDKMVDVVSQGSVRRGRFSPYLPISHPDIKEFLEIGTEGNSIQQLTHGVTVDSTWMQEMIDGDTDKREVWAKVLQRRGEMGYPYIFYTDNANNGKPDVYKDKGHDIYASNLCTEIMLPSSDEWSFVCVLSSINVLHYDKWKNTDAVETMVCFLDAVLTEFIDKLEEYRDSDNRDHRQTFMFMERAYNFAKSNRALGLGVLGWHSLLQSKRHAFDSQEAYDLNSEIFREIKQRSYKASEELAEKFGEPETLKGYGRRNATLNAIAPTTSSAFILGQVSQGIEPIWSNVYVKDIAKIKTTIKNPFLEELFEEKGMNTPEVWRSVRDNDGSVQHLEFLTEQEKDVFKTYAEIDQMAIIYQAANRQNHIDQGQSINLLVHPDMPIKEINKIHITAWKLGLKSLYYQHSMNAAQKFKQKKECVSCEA
T2 sequence (A3XHF9 100-427 partner): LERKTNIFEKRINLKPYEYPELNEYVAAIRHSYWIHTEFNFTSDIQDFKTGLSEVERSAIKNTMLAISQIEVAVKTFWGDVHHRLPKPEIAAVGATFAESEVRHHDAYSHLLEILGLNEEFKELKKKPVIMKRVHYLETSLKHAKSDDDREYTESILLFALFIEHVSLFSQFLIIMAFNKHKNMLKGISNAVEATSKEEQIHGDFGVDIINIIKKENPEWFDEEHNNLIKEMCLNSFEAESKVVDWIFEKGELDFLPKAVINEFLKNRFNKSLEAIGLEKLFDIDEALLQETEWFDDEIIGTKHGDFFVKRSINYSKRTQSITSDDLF
Experimental: as §4
Enzyme reactions were incubated for 10–30 min and then stopped by the addition of methanol. […] Relative quantification was obtained by peak height measurements in the chromatogram (UV absorbance at 271 nm) in relation to standards. Specific activities of either NrdA (Figure 2a–b) or NrdB (Figure 2c–f) were determined. […] In some cases the data was standardized to activity percent, where 100% was determined as maximum enzyme activity in a specific condition.
as §3

[6] = molecular target: the molecule itself; experiment: SEC; with ATP; Superdex 200 10/300 GL at room temperature; 50 mM Tris-HCl pH 7.6, 150 mM KCl, 10 mM MgCl2; NrdB 10 µM
[7] = molecular target: the molecule itself; experiment: GEMMA (gas-phase electrophoretic macromolecule analysis); with 50 µM dATP and equimolar magnesium acetate; 20 mM ammonium acetate pH 7.5, 0.005% Tween 20; NrdB 0.1 mg/ml (~2 µM) or NrdB∆99

Molecule | -TΔS (NrdB [2]; 10°C) [kcal/mol] | ΔG (NrdB [2]; 10°C) [kcal/mol] | ΔH (NrdB [2]; 10°C) | N (binding stoichiometry) (NrdB [2]; 10°C) | effect on NrdB oligomer equilibrium (NrdB [3]) | effect of s-site effector on substrate reduction [5] | other results
dADP | 18.4 ± 1.9 | -6.21 | -24.6 kcal/mol and -24.6 ± 2.2 kcal/mol | 2.1 and 2.1 ± 0.2 | induced formation of NrdB tetramers, although less efficiently than with dATP | – | interaction with the a-site (effect on GDP reduction) ([1]; 2 mM nucleotide, s-site saturating dTTP (2 mM), 4 µM NrdA and 1 µM NrdB): found to interact; effect of titration on enzyme activity ([1]; CDP reduction (3 mM CDP), 2 µM NrdA and 0.5 µM NrdB): inhibited the enzyme activity, although less strongly than dATP; lower affinity compared to dATP (NrdB [2]; from Kd, ITC): 15 fold
CC(=O)[O-].CC(=O)[O-].[Mn+2] [Mn, Mn(CH3COO)2] | – | – | – | – | – | – | effect of metal on catalytic activity [4]: increase in catalytic activity
Nc1nc2c(ncn2[C@H]2C[C@H](O)[C@@H](COP(=O)(O)OP(=O)(O)OP(=O)(O)O)O2)c(=O)[nH]1 [dGTP] | – | – | – | – | – | stimulated the reduction of ADP and GDP | –
Cc1cn([C@H]2C[C@H](O)[C@@H](COP(=O)(O)OP(=O)(O)OP(=O)(O)O)O2)c(=O)[nH]c1=O [dTTP] | – | – | – | – | – | stimulated the reduction of GDP | –
Nc1ncnc2c1ncn2[C@H]1C[C@H](O)[C@@H](COP(=O)(O)OP(=O)(O)OP(=O)(O)O)O1 [dATP] | 11.2 ± 2.39 | -7.89 | -18.9 kcal/mol and -18.9 ± 2.39 kcal/mol | 2 | dramatically shifted the equilibrium towards tetramers β4 | – | EC50 (s-site in NrdA): 1.4 µM; Ki [1]: 20 µM; concentration at which inhibitory ([1]; CDP reduction, 0.5 µM NrdA and 2 µM wild type NrdB, activates at low concentrations): ≥ 30 µM; Kd (NrdB [2]; 10°C, one-set-of-sites model): 1 ± 0.2 µM; EC50 (NrdB [3]; GEMMA, 2 Psi, NrdB (~1 μM), read-out: concentration at which NrdB tetramers reach half-maximum mass concentration): ~10 µM
Leeuwenhoekiella blandensis NrdBi (wild type NrdB, radical-generating subunit of class I ribonucleotide reductase) (enzyme, UniProt A3XHF9 1-427, looked up, NrdBi, radical-generating subunit of the class I RNR of Leeuwenhoekiella blandensis sp. nov. strain MED217; GenBank EAQ51288; amplified from genomic DNA with primers from the start codon to the stop codon; ATP-cone 1-103, linker 104-106, core 107-398, C-terminus 399-427; pET-28a(+) construct with N-terminal hexahistidine tag and thrombin site; Oligomeric state depends on nucleotide: dimer with …) MSSQEIKKIIKRDYSTAPFVLEKITNAIANAMAALGHGSEQDAKLISMQVYESLLNNKEQESEYIPTVEQVQDMVEDKLMSSEFHDVAKAYIIYRNKRALERKTNIFEKRINLKPYEYPELNEYVAAIRHSYWIHTEFNFTSDIQDFKTGLSEVERSAIKNTMLAISQIEVAVKTFWGDVHHRLPKPEIAAVGATFAESEVRHHDAYSHLLEILGLNEEFKELKKKPVIMKRVHYLETSLKHAKSDDDREYTESILLFALFIEHVSLFSQFLIIMAFNKHKNMLKGISNAVEATSKEEQIHGDFGVDIINIIKKENPEWFDEEHNNLIKEMCLNSFEAESKVVDWIFEKGELDFLPKAVINEFLKNRFNKSLEAIGLEKLFDIDEALLQETEWFDDEIIGTKHGDFFVKRSINYSKRTQSITSDDLF | – | – | – | – | – | – | stoichiometry N [6]: 2; stoichiometry N [7]: 4

— article PMC5794259, “Novel ATP-cone-driven allosteric regulation of ribonucleotide reductase via the radical-generating subunit” (eLife, 2018)
